Laboratory results reported in patent publication US20130267606A1, “USE OF VITAMIN K FOR WEIGHT MAINTENANCE AND WEIGHT CONTROL” (VITAK B.V., priority 2011, published 2013).
Where two headings read alike, the source gives them in different places.

Columns and labels:
[1] = placebo controlled 3-year randomized trial of vitamin K2 (MK-7) on body weight and BMI in postmenopausal women (Example 4); type: in vivo, human
Method: 250 apparently healthy postmenopausal women (age range: 55-75 years) were recruited in a placebo controlled 3-year randomized trial to investigate the influence of vitamin K2 (MK-7, 180 μg/day) on body weight and BMI. Exclusion criteria were: BMI>30 kg/m^2, a medical history or use of drugs known to interfere with vitamin K-, calcium- and/or glucose-metabolism. Body height was measured using a wall-mounted stadiometer. Body weight was measured to the nearest 0.1 kg with participants wearing light clothing and no shoes. Body mass index (BMI) was calculated as body weight (kg) divided by the square of height (m^2). Statistical analysis was performed using the statistical package (SPSS vs 17.0 Corp, Chicago, Ill.). […] In the unpaired t-test the difference in response to treatment was statistically significant at P<0.005 after 3 years.

adipogenesis = details: in vitro; cited from earlier work
[2] = placebo controlled randomized 3-year trial of vitamin K2 (MK-4) on BMI and serum markers in postmenopausal women (Example 3); type: in vivo, human; details: for serum ucOC / serum cOC: mean±SD
[3] = placebo controlled 2-year randomized trial of vitamin K1 on body weight and BMI during and after weight reduction intervention (Example 5); type: in vivo, human; details: vitamin K1 1 mg/day
Method: 120 apparently healthy but overweight subjects (age range: 35-60 years, 52 men, 68 women) were recruited in a placebo controlled 2-year randomized trial to investigate the influence of vitamin K1 (1 mg/day) on body weight and BMI during and after a 6-month intervention aiming significant weight reduction. At the start of the study participants were randomized to receive either placebo or vitamin K for 24 months. All participants received extensive dietary counselling and were motivated to increase their physical exercise during the first 6 months of the study, with personal contact once weekly. After this initial period, counselling was stopped, but vitamin K/placebo treatment was continued for another 18 months, while participants visited our institute every half year. Inclusion criteria were: apparently healthy, BMI between 25 and 35 kg/m^2, Exclusion criteria were: a medical history or use of drugs known to interfere with vitamin K-, calcium- and/or glucose-metabolism. Body height was measured using a wall-mounted stadiometer. Body weight was measured to the nearest 0.1 kg with participants wearing light clothing and no shoes. Body mass index (BMI) was calculated as body weight (kg) divided by the square of height (m^2). Statistical analysis was performed using the statistical package (SPSS vs 17.0 Corp, Chicago, Ill.).

[4] = after 3 years of supplementation, cited from earlier work
[5] = 1 year of supplementation, healthy postmenopausal women; cited from earlier work
[6] = vitamin K2 (MK-7) dose-response study, circulating osteocalcin and adiponectin (Example 2); type: in vivo, human
[7] = 62.5 mg/kg body weight per day, rats; cited from earlier work
[8] = second phase of the study (18 months)

CC(C)=CCC/C(C)=C/CC/C(C)=C/CC/C(C)=C/CC1=C(C)C(=O)c2ccccc2C1=O [MK-4]
BMI ([1]; after 3 years supplementation (180 μg/day), P=0.463): 25.4±3.0 kg/m^2 | average body weight ([1]; after 3 years supplementation (180 μg/day), non-significant change): 67.4 kg | BMI ([1]; baseline, treated group): 25.2±2.8 kg/m^2 | average body weight ([1]; baseline, treated group): 66.9 kg | adipogenesis (adipogenesis): inhibited | osteoblastic differentiation (adipogenesis): stimulated | UCR (ucOC/cOC ratio) ([2]; after 3 years MK-4 45 mg/day): 0.12±0.15 | decrease of UCR ([2]; after 3 years MK-4 45 mg/day versus baseline, P<0.0001): 74±22% | serum ucOC ([2]; after 3 years MK-4 45 mg/day, P<0.0001): 0.8 ± 1.0 ng/mL | serum cOC ([2]; after 3 years MK-4 45 mg/day, P=0.046): 6.9 ± 2.3 ng/mL | circulating adiponectin ([2]; after 3 years MK-4 45 mg/day, no significant difference to placebo (P=0.224)): 13.1 ± 8.3 µg/mL | BMI ([2]; after 3 years MK-4 45 mg/day, non-significant increase (P=0.463)): 27.2±0.3 kg/m^2 | BMI ([2]; baseline, MK-4 group): 27.1±0.3 kg/m^2 | UCR (ucOC/cOC ratio) ([2]; baseline, MK-4 group): 0.54±0.35 | serum cOC ([2]; baseline, MK-4 group): 6.4 ± 2.5 ng/mL | serum ucOC ([2]; baseline, MK-4 group): 3.2 ± 1.9 ng/mL | circulating adiponectin ([2]; baseline, MK-4 group, no significant difference to placebo (P=0.562)): 14.2 ± 9.7 µg/mL | average body weight ([2]; remained constant over 3 years MK-4 45 mg/day): 70.3 ± 0.9 kg

CC1=C(C/C=C(\C)CCC[C@H](C)CCC[C@H](C)CCCC(C)C)C(=O)c2ccccc2C1=O [vitamin K1, phylloquinone]
decrease of average body weight and BMI versus placebo ([3]; first 6 months with dietary counselling and exercise): non-significant better performance | average weight gain versus placebo group ([3]; following 18 months (second phase), p<0.05): significantly lower | participants returned to their starting weight [3, 8]: 7 participants | participants without significant weight gain [3, 8]: 28 participants | progression of insulin resistance ([4]; older men): reduced | progression of insulin resistance ([4]; women): not | adipogenesis (adipogenesis): not | glucose metabolism [5]: did not alter

CC(C)=CCC/C(C)=C/CC/C(C)=C/CC/C(C)=C/CC/C(C)=C/CC/C(C)=C/CC/C(C)=C/CC1=C(C)C(=O)c2ccccc2C1=O [MK-7]
effect on body weight and BMI ([1]; nutritionally relevant intake, MK-7 180 μg/day, 3 years, versus placebo increase): maintenance of body weight and BMI | ucOC/cOC ratio ([6]; MK-7 45-360 μg per day for 12 weeks, effect even at 45 μg/day): significant decrease | circulating ucOC ([6]; MK-7 45-360 μg per day for 12 weeks, effect even at 45 μg/day, healthy men and premenopausal women): significant decrease | circulating adiponectin ([6]; nutritional levels of MK-7, 12 weeks): does not affect

menaquinone [vitamin K2]
effect in animal model for auto-immune disease [7]: protective
